Values quoted from earlier work, collected in patent US8334001B2, “Composition comprising mucilaginous polysaccharides derived from aloe barbadensis and method for obtaining same and use thereof” (Pharmabrand S.A., priority 2007, dated 2012).
Read-outs that look alike come from different tables or passages of the source.

Row | Substance | activation of the necrosis factor, kappa B (necrosis factor, kappa B; concentration of 200 μg/ml) | activation of the necrosis factor, kappa B (necrosis factor, kappa B; concentrations of only 0.015% of the aloeride) | effect on TNF-alfa (TNF-alfa)
1 | acemannan | produces an activation | – | –
2 | aloeride | – | the effect is shown | increases
